How the values were obtained:
L1210 [1] = assay: Antitumor activity against mouse L1210 cells assessed as dose required to produce T/C of 125% administered for 10 days; format: functional
[2] = Ratio of LD50 for rat allografted with rat Walker 256 cells to ED90 for rat Walker 256 cells allografted in rat
Rattus norvegicus = species: Rattus norvegicus; assay: Toxicity in rat allografted with rat Walker 256 cells; format: organism-based
[3] = Drug metabolism assessed as log K of Holtzman rat liver esterase-mediated hydrolysis after 5 mins; format: ADME, tissue-based; conditions: isolated protein
W256 = assay: Antitumor activity against rat Walker 256 cells allografted in rat; format: functional
P388 [4] = assay: Antitumor activity against mouse P388 cells allografted in mouse assessed as dose required to produce T/C of 180% administered for 10 days; format: functional
P388 [5] = assay: Antitumor activity against mouse P388 cells allografted in mouse assessed as dose required to produce T/C of 125% administered for 10 days; format: functional
L1210 [6] = assay: Antitumor activity against mouse L1210 cells assessed as dose required to produce T/C of 125% administered for 15 days; format: functional
L1210 [7] = assay: Antitumor activity against mouse L1210 cells assessed as dose required to produce T/C of 125% administered for 9 days; format: functional
[8] = Stability of the compound in acetone assessed as hydrolysis at 66 degC after 30 mins; format: physicochemical; conditions: 0.5 h
P388 [9] = assay: Antitumor activity against mouse P388 cells allografted in mouse assessed as dose required to produce T/C of 125% administered for 9 days; format: functional
P388 [10] = assay: Antitumor activity against mouse P388 cells allografted in mouse assessed as dose required to produce T/C of 180% administered for 9 days; format: functional
L1210 [11] = assay: Antitumor activity against mouse L1210 cells assessed as dose required to produce T/C of 125% administered for 8 days; format: functional

## CS(=O)(=O)OCCN(CCOS(C)(=O)=O)c1ccc([N+](=O)[O-])cc1
L1210 [1]
  log(1/C): 3.74

## COc1cccc(C(=O)Oc2ccc(N(CCBr)CCBr)cc2)c1
[2]
  Ratio: 3.5
Rattus norvegicus
  log1/CLD50: 5.25

## CCN(CC)c1ccc(OC(=O)c2ccc([N+](=O)[O-])cc2)cc1
[3]
  log K: 0.67

## CCN(CC)c1ccc(OC(=O)c2ccc(OC)cc2)cc1
[3]
  log K: -0.49

## CC(C)c1ccccc1C(=O)Oc1ccc(N(CCBr)CCBr)cc1
W256
  log1/CED90: 4.39
[2]
  Ratio: 3.5
Rattus norvegicus
  log1/CLD50: 4.66

## NC(Cc1ccc(N(CCCl)CCCl)cc1)C(=O)O (stereo not drawn) [SARCOLYSIN]
P388 [4]
  log(1/C): 5.18
P388 [5]
  log(1/C): 5.61
L1210 [6]
  log(1/C): 4.94

## CS(=O)(=O)OCCN(CCOS(C)(=O)=O)c1ccccc1
L1210 [6]
  log(1/C): 3.97

## O=C(Oc1ccc(N(CCBr)CCBr)cc1)c1ccc(Cl)cc1
W256
  log1/CED90: 4.66
[2]
  Ratio: 3.5
Rattus norvegicus
  log1/CLD50: 5.18

## CC(=O)Nc1cccc(N(CCOS(C)(=O)=O)CCOS(C)(=O)=O)c1
L1210 [7]
  log(1/C): 5.67

## O=C(Oc1ccc(N(CCCl)CCCl)cc1)c1cccc([N+](=O)[O-])c1
W256
  log1/CED90: 4.81
[2]
  Ratio: 3.5
Rattus norvegicus
  log1/CLD50: 4.4

## CCN(CC)c1ccc(OC(=O)c2cccc(OC)c2)cc1
[3]
  log K: 0.15

## CS(=O)(=O)OCCN(CCOS(C)(=O)=O)c1cccc(C(F)(F)F)c1
L1210 [6]
  log(1/C): 4.42

## Cc1ccc(S(=O)(=O)OCCN(CCOS(=O)(=O)c2ccc(C)cc2)c2cccc(F)c2)cc1
L1210 [6]
  log(1/C): 3.31

## CCN(CC)c1ccc(OC(=O)c2cccc(Cl)c2)cc1
[3]
  log K: 0.32

## CCOC(=O)c1ccc(N(CCOS(C)(=O)=O)CCOS(C)(=O)=O)cc1
L1210 [6]
  log(1/C): 4.07

## CCN(CC)c1ccc(OC(=O)c2ccc(Cl)cc2)cc1
[3]
  log K: 0.2

## CS(=O)(=O)OCCN(CCOS(C)(=O)=O)c1cccc(Cl)c1
L1210 [1]
  log(1/C): 4.85

## CCN(CC)c1ccc(OC(=O)c2cccc([N+](=O)[O-])c2)cc1
[3]
  log K: 0.55

## CCC(=O)OCC(Br)CBr (stereo not drawn)
L1210 [6]
  log(1/C): 5.83

## Cc1cccc(C)c1C(=O)Oc1ccc(N(CCCl)CCCl)cc1
W256
  log1/CED90: 3.31
[2]
  Ratio: 3.5
Rattus norvegicus
  log1/CLD50: 3.1

## O=C(Oc1ccc(N(CCCl)CCCl)cc1)c1cccc(Cl)c1
W256
  log1/CED90: 4.55
[2]
  Ratio: 3.5
Rattus norvegicus
  log1/CLD50: 3.95

## COc1ccc(C(=O)Oc2ccc(N(CCBr)CCBr)cc2)cc1
W256
  log1/CED90: 5.12
[2]
  Ratio: 3.5
Rattus norvegicus
  log1/CLD50: 5.21

## CCOC(=O)CCOc1ccccc1N(CCCl)CCCl
L1210 [6]
  log(1/C): 4.67

## Cc1cccc(C(=O)Oc2ccc(N(CCBr)CCBr)cc2)c1
W256
  log1/CED90: 5.18
[2]
  Ratio: 3.5
Rattus norvegicus
  log1/CLD50: 5.16

## CS(=O)(=O)OCCN(CCOS(C)(=O)=O)c1ccc([N+](=O)[O-])c(Cl)c1
L1210 [6]
  log(1/C): 3.02

## CCN(CC)c1ccc(OC(=O)c2ccc(C)cc2)cc1
[3]
  log K: -0.41

## O=C(Oc1ccc(N(CCCl)CCCl)cc1)c1cccc(F)c1
W256
  log1/CED90: 4.88
[2]
  Ratio: 3.5
Rattus norvegicus
  log1/CLD50: 4.38

## CCN(CC)c1ccc(OC(=O)c2cccc(C)c2)cc1
[3]
  log K: 0.32

## CCN(CC)c1ccc(OC(=O)c2ccc(C(F)(F)F)cc2)cc1
[3]
  log K: 0.45

## COc1ccc(C(=O)Oc2ccc(N(CCCl)CCCl)cc2)cc1
W256
  log1/CED90: 4.89
[2]
  Ratio: 3.5
Rattus norvegicus
  log1/CLD50: 4.11

## Cc1ccc(S(=O)(=O)OCCN(CCOS(=O)(=O)c2ccc(C)cc2)c2ccc(F)cc2)cc1
L1210 [7]
  log(1/C): 4.2

## CS(=O)(=O)OCCN(CCOS(C)(=O)=O)c1ccc(N=O)c(Cl)c1
L1210 [6]
  log(1/C): 6.03

## O=C(O)CCCc1ccc(N(CCCl)CCCl)cc1 [CHLORAMBUCIL]
W256
  log1/CED90: 5.12
[8]
  log K: -3.65
Rattus norvegicus
  log1/CLD50: 4.03

## Cc1ccccc1C(=O)Oc1ccc(N(CCBr)CCBr)cc1
W256
  log1/CED90: 4.96
[2]
  Ratio: 3.5
Rattus norvegicus
  log1/CLD50: 4.96

## Cc1ccc(S(=O)(=O)OCCN(CCOS(=O)(=O)c2ccc(C)cc2)c2ccccc2)cc1
L1210 [6]
  log(1/C): 3.8

## O=C(Oc1ccc(N(CCBr)CCBr)cc1)c1cccc([N+](=O)[O-])c1
W256
  log1/CED90: 4.67
[2]
  Ratio: 3.5
Rattus norvegicus
  log1/CLD50: 5.07

## O=C(Oc1ccc(N(CCCl)CCCl)cc1)c1cccc(Br)c1
W256
  log1/CED90: 4.22
[2]
  Ratio: 3.5
Rattus norvegicus
  log1/CLD50: 3.84

## O=C(Oc1ccc(N(CCBr)CCBr)cc1)c1cccc(Cl)c1
W256
  log1/CED90: 4.96
[2]
  Ratio: 3.5
Rattus norvegicus
  log1/CLD50: 5.11

## Cc1cccc(C)c1C(=O)Oc1ccc(N(CCBr)CCBr)cc1
W256
  log1/CED90: 3.81
[2]
  Ratio: 3.5
Rattus norvegicus
  log1/CLD50: 3.58

## ClCCN(CCCl)c1ccc(/N=C/c2ccccc2)cc1
P388 [9]
  log(1/C): 5.33
P388 [10]
  log(1/C): 5

## Cc1cc(N(CCOS(C)(=O)=O)CCOS(C)(=O)=O)ccc1N=O
L1210 [1]
  log(1/C): 6.4

## CCc1ccccc1C(=O)Oc1ccc(N(CCBr)CCBr)cc1
W256
  log1/CED90: 4.96
[2]
  Ratio: 3.5
Rattus norvegicus
  log1/CLD50: 4.64

## O=C(Oc1ccc(N(CCCl)CCCl)cc1)c1ccccc1
W256
  log1/CED90: 4.86
[2]
  Ratio: 3.5
Rattus norvegicus
  log1/CLD50: 4.06

## CS(=O)(=O)OCCN(CCOS(C)(=O)=O)c1ccc(N=O)cc1
L1210 [11]
  log(1/C): 6.13

## Cc1ccc(C(=O)Oc2ccc(N(CCBr)CCBr)cc2)cc1
W256
  log1/CED90: 4.94
[2]
  Ratio: 3.5
Rattus norvegicus
  log1/CLD50: 5.32

## O=C(Oc1ccc(N(CCCl)CCCl)cc1)c1ccc(F)cc1
W256
  log1/CED90: 4.9
[2]
  Ratio: 3.5
Rattus norvegicus
  log1/CLD50: 4.21

## ClCCN(CCCl)c1ccc2ccccc2c1 [CHLORNAPHAZINE]
[8]
  log(%): 1.18

## O=C(Oc1ccc(N(CCBr)CCBr)cc1)c1ccc([N+](=O)[O-])cc1
W256
  log1/CED90: 4.86
[2]
  Ratio: 3.5
Rattus norvegicus
  log1/CLD50: 5.37

## CCOC(=O)c1cccc(N(CCOS(C)(=O)=O)CCOS(C)(=O)=O)c1
L1210 [1]
  log(1/C): 4.63

## CS(=O)(=O)OCCN(CCOS(C)(=O)=O)c1cccc([N+](=O)[O-])c1
L1210 [1]
  log(1/C): 3.93

## CCN(CC)c1ccc(OC(=O)c2cccc(C(F)(F)F)c2)cc1
[3]
  log K: 0.34

## O=C(Oc1ccc(N(CCCl)CCCl)cc1)c1ccc(Br)cc1
W256
  log1/CED90: 4.84
[2]
  Ratio: 3.5
Rattus norvegicus
  log1/CLD50: 4.19

## O=C(O)c1ccccc1N(CCO)CCCl
L1210 [6]
  log(1/C): 4.94

## CCOC(=O)c1cc(N(CCOS(C)(=O)=O)CCOS(C)(=O)=O)ccc1N
L1210 [6]
  log(1/C): 4.85

## O=C(Oc1ccc(N(CCBr)CCBr)cc1)c1ccccc1
W256
  log1/CED90: 5.45
[2]
  Ratio: 3.5
Rattus norvegicus
  log1/CLD50: 5.45

## CC(=O)Nc1cc(N(CCOS(C)(=O)=O)CCOS(C)(=O)=O)ccc1N=O
L1210 [6]
  log(1/C): 6.05

## Cc1ccccc1C(=O)Oc1ccc(N(CCCl)CCCl)cc1
W256
  log1/CED90: 4.55
[2]
  Ratio: 3.5
Rattus norvegicus
  log1/CLD50: 3.71

## Cc1ccc(C(=O)Oc2ccc(N(CCCl)CCCl)cc2)cc1
W256
  log1/CED90: 4.78
[2]
  Ratio: 3.5
Rattus norvegicus
  log1/CLD50: 4.2

## CCOC(=O)CCCc1ccc(N(CCCl)CCCl)cc1
[8]
  log K: -3.84
  log(%): 1.36

## O=C(Oc1ccc(N(CCBr)CCBr)cc1)c1cccc(C(F)(F)F)c1
W256
  log1/CED90: 4.99
[2]
  Ratio: 3.5
Rattus norvegicus
  log1/CLD50: 5.11

## ClCCN(CCCl)c1ccc(/C=C/c2ccccc2)cc1
[8]
  log K: -3.95
  log(%): 1.26

## CCN(CC)c1ccc(OC(=O)c2ccccc2)cc1
[3]
  log K: -0.26

Reference: ChEMBL document CHEMBL3244068 (J Med Chem, 1978)
